In patent US12509425B2, “Tablet comprising modoflaner as an active component” (VIRBAC, priority 2020, dated 2025):

Experiment: Bioavailability study: Modoflaner plasma concentration in dogs after oral gel capsule
Type: in vivo
Conditions: oral gelatin capsule, same dosage per kg body weight, 5 dogs per group
Protocol: The highest plasma concentration measured was set to 1 and the other plasma concentrations are given relatively to this highest value.
Ten dogs, divided into two groups comprising five animals each, were orally treated with a gel capsule containing either modification I or IV of Modoflaner at the same dosage of Modoflaner per kg body weight.
For kinetic evaluation, blood was sampled at predetermined time points (0, 0.5, 1, 2, 4, 6, 8, 24, 32, 48, 72 and 144 hours) before and after treatment (n=12 per dog). All samples were deep-frozen immediately after plasma preparation and stored at −18° C. or below until shipment to the analytical laboratory.
The samples were analyzed with regard to their concentration in Modoflaner.
The plasma samples were deproteinized by mixing 100 μL plasma with 900 μL of a mixture of 100 mL of 0.40 g ammonium acetate in 1 L water plus 100 μL formic acid and 600 mL acetonitrile, treatment for 30 s on a vortex mixer and subsequent centrifugation. The quantitative determination was performed by HPLC (Column ZORBAX Eclipse Plus C18 Rapid Resolution HD, 2.1×50 mm, 1.8 μm Agilent Technologies; Isocratic pump: Mobile phase: Solution of methanol/water (7+3, v/v)+10 mMol ammonium formate+0.12 mL/L formic acid Flow rate: 0.5 mL/min; Binary pump: Mobile phase A: water+10 mMol ammonium formate+0.12 mL/L formic acid Mobile phase B: methanol+10 mMol ammonium formate+0.12 mL/L formic acid Flow rate: 0.6 mL/min) with detection by tandem mass spectrometry using a Sciex API 5500 mass spectrometer (negative ionisation mode using the transition from Modoflaner precursor ion at m/z 714 to its product ion at m/z 694). The lower limit of quantitation was 1 μg/L.
For calculation of the mean values, results below the limit of quantitation were set to half the limit of quantitation.

Row | Tmax [h] | Cmax relative to Cmax of crystalline modification I | Tmax (listed as modification IV) [h] | Structure (SMILES)
1 | 32 | – | – | O=C(Nc1cccc(C(=O)Nc2c(I)cc(C(F)(C(F)(F)F)C(F)(F)F)cc2C(F)(F)F)c1F)c1ccc(F)nc1 [crystalline modification I of Modoflaner, 6-fluoro-N-(3-(2-iodo-4-(perfluoropropan-2-yl)-6-(trifluoromethyl)phenylcarbamoyl)-2-fluoro-phenyl)-nicotinamide]
2 | – | about 3 times | 4 | O=C(Nc1cccc(C(=O)Nc2c(I)cc(C(F)(C(F)(F)F)C(F)(F)F)cc2C(F)(F)F)c1F)c1ccc(F)nc1 [6-fluoro-N-(3-(2-iodo-4-(perfluoropropan-2-yl)-6-(trifluoromethyl)phenylcarbamoyl)-2-fluoro-phenyl)-nicotinamide]
